Laboratory results: patent US8110228B2, “Composition for treatment of menopause” (Bionovo, Inc., priority 2005, dated 2012)
Marks after values point to notes of the source that are not given here.

Experiments:
U2OS-ERα cells [1] = assay: Affymetrix U95Av2 gene expression microarray in U2OS-ERα cells; assay type: cell-based, human; conditions: for number of genes Activated, α / number of genes Repressed, α: 10 nM E2, 1 μM raloxifene or 1 μM tamoxifen
Description: (§1) To identify genes regulated by ERα and/or ERβ, the U2OS-ERα and U2OS-ERβ cell lines were treated with doxycycline for 18 h in the absence or presence of 10 nM E2. Total RNA was used to prepare cRNA for hybridization with the human U95Av2 Affymetrix microarrays, which contain 12,600 known genes. Six sets of comparative expression data of untreated vs. each treated group were used to determine the genes regulated in ERα or ERβ cells.
(§2) Microarray data obtained from human Affymetrix U95Av2 gene chips from untreated vs. ligand-treated samples were analyzed using the Affymetrix Microarray Suite Version 5.0. Candidate genes displaying a statistically significant (p<0.05) increase or decrease signal changes relative to controls in at least three experiments were further selected by a ±0.8 signal log ratio mean cut-off. […] Fold-changes in the U2OS-ERα and U2OS-ERβ samples (in parentheses) were calculated relative to the untreated samples.

[2] = system: U2OS-ERα and U2OS-ERβ cell lines; assay: Affymetrix U95Av2 microarray, genes regulated across U2OS-ERα and U2OS-ERβ cell lines; assay type: cell-based, human; conditions: for number of common genes with opposite expression patterns in ERα cells compared to ERβ cells (*): α + β, 1 μM SERM, 18 h
U2OS-ERβ cells [3] = assay: Affymetrix U95Av2 gene expression microarray in U2OS-ERβ cells; assay type: cell-based, human
Description: as §1, §2

[4] = system: U2OS-ERα and U2OS-ERβ cell lines; assay: Affymetrix U95Av2 microarray, genes regulated across U2OS-ERα and U2OS-ERβ cell lines; assay type: cell-based, human; conditions: for number of genes Activated, α + β / number of genes Repressed, α + β: in both cell lines; for number of genes Activated, α + β / number of genes Repressed, α + β / total genes regulated in U2OSα and U2OSβ cell lines: 18 h; for total genes regulated in U2OSα and U2OSβ cell lines: p<0.05, 10 nM E2, 1 μM raloxifene or 1 μM tamoxifen
Description: as §1, §2

U2OS-ERα cells [5] = conditions: relative to untreated, 18 h
human ERβ = target: T1, human ERβ (Homo sapiens, UniProt Q92731); assay: ERE-tk-Luc reporter activation in U2OS osteosarcoma cells transfected with ERβ; assay type: cell-based; conditions: FIG. 1B
T1 construct: expressed in transfected cells; host or cells: U2OS osteosarcoma cells, transient transfection

U2OS-ERβ cells [6] = conditions: relative to untreated, 18 h
breast cancer graft = breast cancer graft (xenograft) growth, control vs DES vs MF101; assay type: in vivo
Excerpt: (§3) In a similar experiment, the effect of MF101 on breast cancer cells was compared to that of diethylstilbestrol (DES). […] FIGS. 3G and 3H show the effect of control, DES and MF101 on a breast cancer graft mass (FIG. 3G) and a uterine horn mass (FIG. 3H).

uterine horn = uterine horn mass, control vs DES vs MF101; assay type: in vivo; conditions: FIG. 3H
Excerpt: as §3

[7] = only in U2OS-ERα cells, percent of all regulated genes

T1 sequence (Q92731 whole entry): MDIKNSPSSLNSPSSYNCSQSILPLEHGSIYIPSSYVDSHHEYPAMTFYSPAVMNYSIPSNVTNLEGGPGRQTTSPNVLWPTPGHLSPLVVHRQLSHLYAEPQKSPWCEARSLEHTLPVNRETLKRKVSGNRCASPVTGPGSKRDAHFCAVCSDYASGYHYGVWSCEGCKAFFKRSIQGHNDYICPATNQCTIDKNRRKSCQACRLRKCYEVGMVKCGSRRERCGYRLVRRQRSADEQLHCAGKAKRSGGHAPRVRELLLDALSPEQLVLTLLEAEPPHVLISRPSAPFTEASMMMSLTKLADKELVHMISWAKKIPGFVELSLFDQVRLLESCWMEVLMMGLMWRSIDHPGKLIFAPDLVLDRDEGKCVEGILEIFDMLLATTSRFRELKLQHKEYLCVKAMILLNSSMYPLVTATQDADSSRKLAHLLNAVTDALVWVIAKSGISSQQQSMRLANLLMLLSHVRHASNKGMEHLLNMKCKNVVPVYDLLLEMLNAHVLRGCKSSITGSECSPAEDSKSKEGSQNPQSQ

In the case of CC/C(=C(\c1ccccc1)c1ccc(OCCN(C)C)cc1)c1ccccc1 [tamoxifen], the “number of genes Activated, α” value (U2OS-ERα cells [1]; only in U2OS-ERα cells, 18 h) is reported as 21, the “number of genes Repressed, α” value (U2OS-ERα cells [1]; only in U2OS-ERα cells, 18 h) is reported as 38 and the “percentage of genes regulated by tamoxifen that were also regulated by raloxifene” value [2] is reported as 27%. For the same compound, the “number of common genes with opposite expression patterns in ERα cells compared to ERβ cells (*)” value [2] was 12*, the “number of genes Activated, β” value (U2OS-ERβ cells [3]; only in U2OS-ERβ cells, 18 h) was 26 and the “number of genes Repressed, β” value (U2OS-ERβ cells [3]; only in U2OS-ERβ cells, 18 h) was 129. The “number of genes Activated, α + β” value [4] was 1, the “number of genes Repressed, α + β” value [4] was 9 and the “total genes regulated in U2OSα and U2OSβ cell lines” value (shortened to “total genes regulated”) [4] was “Tamoxifen: 236 genes regulated in U2OSα and U2OSβ cell lines”.

C[C@]12CC[C@@H]3c4ccc(O)cc4CC[C@H]3[C@@H]1CC[C@@H]2O [estradiol] was tested, and the “genes regulated only in the U2OS-ERα cells” value (U2OS-ERα cells [1]; 10 nM E2) was 65 genes, the “number of genes Activated, α” value (U2OS-ERα cells [1]; only in U2OS-ERα cells, 18 h) was 33 and the “number of genes Repressed, α” value (U2OS-ERα cells [1]; only in U2OS-ERα cells, 18 h) was 32. The “genes regulated only in the U2OS-ERβ cells” value (U2OS-ERβ cells [3]; 10 nM E2) was 125 genes, the “number of genes Activated, β” value (U2OS-ERβ cells [3]; only in U2OS-ERβ cells, 18 h) was 87 and the “number of genes Repressed, β” value (U2OS-ERβ cells [3]; only in U2OS-ERβ cells, 18 h) was 38. The “percentage of genes regulated by both ERα and ERβ” value ([4]; 10 nM E2, 38 of the 228) was 17%, the “genes regulated by both ERα and ERβ” value ([4]; 10 nM E2, of the 228) was 38 genes and the “number of genes Activated, α + β” value [4] was 34. The “number of genes Repressed, α + β” value [4] was 4, the “total genes regulated” value [4] was “Estradiol: 228 genes regulated in U2OSα and U2OSβ cell lines” and the “total genes regulated” value ([4]; listed as E2) was 228 genes.

With O=C(c1ccc(OCCN2CCCCC2)cc1)c1c(-c2ccc(O)cc2)sc2cc(O)ccc12 [raloxifene] the “Fold-change by real-time PCR, NKG2C (α)” value (U2OS-ERα cells [5]) was 7.54 fold, the “Mean signal log ratio ± S.E., NKG2C (α)” value (U2OS-ERα cells [1]; U2OS-ERα, 18 h) was 2.40 ± 0.82 and the “number of genes Activated, α” value (U2OS-ERα cells [1]; only in U2OS-ERα cells, 18 h) was 10. The “number of genes Repressed, α” value (U2OS-ERα cells [1]; only in U2OS-ERα cells, 18 h) was 10, the “relative percentage of genes Activated, α” value (U2OS-ERα cells [1]; [7]) was “(5.3%)” and the “relative percentage of genes Repressed, α” value (U2OS-ERα cells [1]; [7]) was “(5.3%)”. For the same compound, the “number of common genes with opposite expression patterns in ERα cells compared to ERβ cells (*)” value [2] was 17*, the “blockade of the activation of ERE-tk-Luc by MF101” value (human ERβ) was “blocked” and the “Mean signal log ratio ± S.E., NKG2C (β)” value (U2OS-ERβ cells [3]; U2OS-ERβ, 18 h) was −5.20 ± 0.08. For the same compound, the “relative percentage of genes Activated, β” value (U2OS-ERβ cells [3]; only in U2OS-ERβ cells) was “(27.4%)”, the “relative percentage of genes Repressed, β” value (U2OS-ERβ cells [3]; only in U2OS-ERβ cells) was “(53.2%)” and the “number of genes Activated, β” value (U2OS-ERβ cells [3]; only in U2OS-ERβ cells, 18 h) was 52. The “number of genes Repressed, β” value (U2OS-ERβ cells [3]; only in U2OS-ERβ cells, 18 h) was 101, the “Fold-change by real-time PCR, NKG2C (β)” value (U2OS-ERβ cells [6]) was 0.36 fold and the “total genes regulated” value [4] was “Raloxifene: 190 genes regulated in U2OSα and U2OSβ cell lines”. The “relative percentage of common genes with opposite expression patterns (*)” value ([4]; α + β) was “(8.9%)”.

In the case of CC/C(=C(/CC)c1ccc(O)cc1)c1ccc(O)cc1 [DES, diethylstilbestrol], the “growth of xenograft (breast cancer graft mass)” value (breast cancer graft; FIG. 3G) is reported as “substantial increase in xenograft mass”, the “proliferation of breast cancer cells” value (breast cancer graft; FIGS. 3D-3F) is reported as “proliferation-stimulating effect” and the “growth of uterine horn mass” value (uterine horn) is reported as “substantial increase in uterine horn growth”.
